Experimental data: the supplement of paper PMC11208160

Assay: recombinant barcode read abundance after kanamycin selection (control-corrected) (log10(CPM+1)); higher = more efficient recombination; sequences stand for … in AGTGCAGAGAAAATCGGCCAGTTTTCTCTGCCTGCAGTCCGCATGCCGT…AGATTTATGCAGCGGACTGCCTTTCTCCCAAAGTGATAAACCGGACAGTATCATGGACCGGTTTTCCCGGTAATCCGTATTTGCAAGGTTGGTTTCACT; site = the 11-nt target
Procedure, shortened: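 Duplicate cultures were plated either on chloramphenicol/ampicillin LB agar, serving as control, or on chloramphenicol/ampicillin/kanamycin with 0.1 mM IPTG. These came from a pooled E. coli library co-electroporated with a donor plasmid, each member pairing a target with an IS621 bridge RNA target-binding loop. Recombination efficiency equals averaged, control-corrected counts per million of recombinant-junction barcodes. It is listed as log10(CPM+1).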
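Note: IS621 recombinase and bridge RNA in Escherichia coli cells.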

Sequence	recombinant barcode read abundance (log10)
GAAATGTCTTGGGTTCTAACCTGTTGCCT (site GCAATGTCTAG)	0.0338
GAAATGTCTTGGGTTCTAACCTGTTGCCT (site GGAATGTCTAG)	0.262
GAAATGTCTTGGGTTCTAACCTGTTGCCT (site GTAATGTCTAG)	0.634
GAACCTACTTGGGTTCTAACCTGTTGCGG (site GAACCTACTCC)	1.77
GAACCTACTTGGGTTCTAACCTGTTGCGG (site GAACCTACTTC)	0.107
GAAGACGCTTGGGTTCTAACCTGTTGCCT (site GAAGACGCTAG)	1.14
GAAGACGCTTGGGTTCTAACCTGTTGCCT (site GAAGCCGCTAG)	0.315
GAAGACGCTTGGGTTCTAACCTGTTGCCT (site GAAGGCGCTAG)	0
GAAGACGCTTGGGTTCTAACCTGTTGCCT (site GAAGTCGCTAG)	0.126
GAAGGCGCTTGGGTTCTAACCTGTTGCCT (site GAAGACGCTAG)	0.187
GAAGGCGCTTGGGTTCTAACCTGTTGCCT (site GAAGCCGCTAG)	0.306
GAAGGCGCTTGGGTTCTAACCTGTTGCCT (site GAAGGCGCTAG)	1.81
GAAGGCGCTTGGGTTCTAACCTGTTGCCT (site GAAGTCGCTAG)	0.0553
GAAGTCCCTTGGGTTCTAACCTGTTGCCT (site AAAGTCCCTAG)	0.558
GAAGTCCCTTGGGTTCTAACCTGTTGCCT (site CAAGTCCCTAG)	0.848
GAAGTCCCTTGGGTTCTAACCTGTTGCCT (site GAAGTCCCTAG)	1.82
GAAGTCCCTTGGGTTCTAACCTGTTGCCT (site TAAGTCCCTAG)	1.22
GAAGTGCCTTGGGTTCTAACCTGTTGCCT (site GAAGAGCCTAG)	0.272
GAAGTGCCTTGGGTTCTAACCTGTTGCCT (site GAAGCGCCTAG)	0.0713
GAAGTGCCTTGGGTTCTAACCTGTTGCCT (site GAAGGGCCTAG)	0.195
GAAGTGCCTTGGGTTCTAACCTGTTGCCT (site GAAGTGCCTAG)	1.92
GAATCCTCTTGGGTTCTAACCTGTTGCCT (site AAATCCTCTAG)	0.145

Sequence	recombinant barcode read abundance (log10)
GAATCCTCTTGGGTTCTAACCTGTTGCCT (site CAATCCTCTAG)	0.531
GAATCCTCTTGGGTTCTAACCTGTTGCCT (site GAATCCTCTAG)	2.06
GAATCCTCTTGGGTTCTAACCTGTTGCCT (site TAATCCTCTAG)	0.483
GAATGAGCTTGGGTTCTAACCTGTTGCCT (site CTCACGACTCT)	0.014
GAATGAGCTTGGGTTCTAACCTGTTGCCT (site GAATGAGCTAG)	1.43
GACAAGTCTTGGGTTCTAACCTGTTGCCT (site GAAACGTCTAG)	0.173
GACAAGTCTTGGGTTCTAACCTGTTGCCT (site GACAAGTCTAG)	1.14
GACACAACTTGGGTTCTAACCTGTTGCCT (site GACACAACTAG)	0
GACACAACTTGGGTTCTAACCTGTTGCCT (site GACCCATCTAG)	0.338
GACACGCCTTGGGTTCTAACCTGTTGCAT (site GACACGCCTAA)	0.0135
GACACGCCTTGGGTTCTAACCTGTTGCAT (site GACACGCCTAC)	0.326
GACACGCCTTGGGTTCTAACCTGTTGCAT (site GACACGCCTAG)	0.976
GACACGCCTTGGGTTCTAACCTGTTGCAT (site GACACGCCTAT)	0.189
GACAGGCCTTGGGTTCTAACCTGTTGCCT (site CACGGGCCTAG)	0.041
GACAGGCCTTGGGTTCTAACCTGTTGCCT (site GACAGGCCTAG)	0.627
GACATTCCTTGGGTTCTAACCTGTTGCCT (site AACATTCCTAG)	0.375
GACATTCCTTGGGTTCTAACCTGTTGCCT (site CACATTCCTAG)	0.113
GACATTCCTTGGGTTCTAACCTGTTGCCT (site GACATTCCTAG)	0.131
GACATTCCTTGGGTTCTAACCTGTTGCCT (site TACATTCCTAG)	0.0381
GACCACCCTTGGGTTCTAACCTGTTGCGG (site ATCCACCCTCC)	1.14
GACCACCCTTGGGTTCTAACCTGTTGCGG (site GACCACCCTCC)	2.85
GACCCTACTTGGGTTCTAACCTGTTGCCT (site AACCCTACTAG)	0.111

Sequence	recombinant barcode read abundance (log10)
GACCCTACTTGGGTTCTAACCTGTTGCCT (site CACCCTACTAG)	0.375
GACCCTACTTGGGTTCTAACCTGTTGCCT (site GACCCTACTAG)	0.516
GACCCTACTTGGGTTCTAACCTGTTGCCT (site TACCCTACTAG)	0.119
GACCGGGCTTGGGTTCTAACCTGTTGCCT (site GACCGAGCTAG)	0.092
GACCGGGCTTGGGTTCTAACCTGTTGCCT (site GACCGCGCTAG)	0.234
GACCGGGCTTGGGTTCTAACCTGTTGCCT (site GACCGGGCTAG)	0.592
GACCGGGCTTGGGTTCTAACCTGTTGCCT (site GACCGTGCTAG)	0.268
GACCGTCCTTGGGTTCTAACCTGTTGCAT (site GACCGTCCTAA)	0.167
GACCGTCCTTGGGTTCTAACCTGTTGCAT (site GACCGTCCTAC)	0.479
GACCGTCCTTGGGTTCTAACCTGTTGCAT (site GACCGTCCTAG)	0.54
GACCGTCCTTGGGTTCTAACCTGTTGCAT (site GACCGTCCTAT)	1.26
GACCGTCCTTGGGTTCTAACCTGTTGCCT (site GACCGTCCTAA)	0.0128
GACCGTCCTTGGGTTCTAACCTGTTGCCT (site GACCGTCCTAC)	0.1
GACCGTCCTTGGGTTCTAACCTGTTGCCT (site GACCGTCCTAG)	1
GACCGTCCTTGGGTTCTAACCTGTTGCCT (site GACCGTCCTAT)	0.263
GACGGATCTTGGGTTCTAACCTGTTGCAT (site GACGGATCTAA)	0.191
GACGGATCTTGGGTTCTAACCTGTTGCAT (site GACGGATCTAC)	0.269
GACGGATCTTGGGTTCTAACCTGTTGCAT (site GACGGATCTAG)	0.233
GACGGATCTTGGGTTCTAACCTGTTGCAT (site GACGGATCTAT)	1.09
GACGGATCTTGGGTTCTAACCTGTTGCGT (site GACGGATCTAA)	0.0403
GACGGATCTTGGGTTCTAACCTGTTGCGT (site GACGGATCTAC)	0.705
GACGGATCTTGGGTTCTAACCTGTTGCGT (site GACGGATCTAG)	0.569

Sequence	recombinant barcode read abundance (log10)
GACGGATCTTGGGTTCTAACCTGTTGCGT (site GACGGATCTAT)	1.35
GACGGCACTTGGGTTCTAACCTGTTGCCT (site CGGCTACCTCC)	0.0844
GACGGCACTTGGGTTCTAACCTGTTGCCT (site GACGGCACTAG)	0.567
GACGTGCCTTGGGTTCTAACCTGTTGCCG (site CTTAGTACTAT)	0.11
GACGTGCCTTGGGTTCTAACCTGTTGCCG (site GACGTGCCTCG)	1.77
GACTAAGCTTGGGTTCTAACCTGTTGCGG (site CTGGGGTCTAA)	0.0398
GACTAAGCTTGGGTTCTAACCTGTTGCGG (site GACTAAGCTCC)	2.39
GACTCTCCTTGGGTTCTAACCTGTTGCAG (site GACTCTCCTCA)	0.147
GACTCTCCTTGGGTTCTAACCTGTTGCAG (site GACTCTCCTCT)	0.0267
GACTGAGCTTGGGTTCTAACCTGTTGCGG (site AGACAGTCTTG)	0.046
GACTGAGCTTGGGTTCTAACCTGTTGCGG (site GACTGAGCTCC)	2.26
GACTGGGCTTGGGTTCTAACCTGTTGCTG (site GACTGGCCTAA)	0.239
GACTGGGCTTGGGTTCTAACCTGTTGCTG (site GACTGGGCTCA)	1.58
GACTGTCCTTGGGTTCTAACCTGTTGCGA (site GACCGTCCTTG)	0.372
GACTGTCCTTGGGTTCTAACCTGTTGCGA (site GACTGTCCTTC)	1.8
GACTGTTCTTGGGTTCTAACCTGTTGCCT (site GACTGTTCTAG)	0.13
GACTGTTCTTGGGTTCTAACCTGTTGCCT (site GCCTGTTCTAG)	0.0949
GACTGTTCTTGGGTTCTAACCTGTTGCCT (site GGCTGTTCTAG)	0.202
GACTGTTCTTGGGTTCTAACCTGTTGCCT (site GTCTGTTCTAG)	0.0588
GACTTGGCTTGGGTTCTAACCTGTTGCCT (site GACTTGACTAG)	0.0256
